Measurements from ChEMBL document CHEMBL1201862, “PubChem BioAssay data set” (2004).
“And” between values parts separate entries of the source, which are not always exact repeats. Identical values can stand only once.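 Test compounds were applied to cells in 96-well plates for 48 hours at 5 doses. Here, GI50 denotes the concentration required for 50% inhibition of growth.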 The source made the active and inactive calls. Cut-off read from the data, not from the text of the source: active = GI50 up to about 1.1 µM and inactive = higher.

Experiments:
Experiment in all cases: DTP human tumour cell line panel, 48 h
[1] = test system: OVCAR-3
[2] = test system: MOLT-4
[3] = test system: CAKI-1
[4] = test system: Malme-3M
[5] = test system: OVCAR-8
[6] = test system: SK-MEL-5
[7] = test system: SNB-19
[8] = test system: SK-MEL-2
[9] = test system: NCI-H522
[10] = test system: CCRF-CEM
[11] = test system: M14
[12] = test system: Hs-578T
[13] = test system: LOX IMVI
[14] = test system: T47D
[15] = test system: UACC-257
[16] = test system: RPMI-8226
[17] = test system: KM12
[18] = test system: HCC 2998
[19] = test system: NCI-H23
[20] = test system: HOP-62

Structure (SMILES)	GI50 [1]	GI50 [2]	GI50 [3]	GI50 [4]	GI50 [5]	GI50 [6]	GI50 [7]	GI50 [8]	GI50 [9]	GI50 [10]	GI50 [11]	GI50 [12]	GI50 [13]	GI50 [14]	GI50 [15]	GI50 [16]	GI50 [17]	GI50 [18]	GI50 [19]	GI50 [20]
COc1cc(OCc2ccc3nc(-c4ccccc4)c(N)nc3c2)cc(OC)c1OC	16.4 µM (inactive)	8.13 µM (inactive)	23.4 µM (inactive)	13.4 µM (inactive)	27.8 µM (inactive)	11.3 µM (inactive)	24.2 µM (inactive)	19.9 µM (inactive)	13.6 µM (inactive)	16.7 µM (inactive)	15.8 µM (inactive)	21.2 µM (inactive)	13.7 µM (inactive)	14.4 µM (inactive)	25 µM (inactive)	8.79 µM (inactive)	18.6 µM (inactive)	35 µM (inactive)		
CCOC(=O)C1=C(C)NC(C)=C(C(=O)OCC)C1c1ccc(C)cc1	21.1 µM (inactive)	25.9 µM (inactive)	48.6 µM (inactive)		28.1 µM (inactive)	18.8 µM (inactive)	63.1 µM (inactive)	39.8 µM (inactive)	32.4 µM (inactive)	0.0193 µM (active)	37.6 µM (inactive)	39.2 µM (inactive)	31.8 µM (inactive)	39.9 µM (inactive)	44.9 µM (inactive)	30.3 µM (inactive)	46.7 µM (inactive)	73.6 µM (inactive)	34.5 µM (inactive)	46.5 µM (inactive)
N#Cc1nnn(-c2ccccc2)c1O	> 100 µM (inactive)	> 100 µM (inactive)	> 100 µM (inactive)	> 100 µM (inactive)	> 100 µM (inactive)	> 100 µM (inactive)	> 100 µM (inactive)	> 100 µM (inactive)	> 100 µM (inactive)		> 100 µM (inactive)	> 100 µM (inactive)	> 100 µM (inactive)	> 100 µM (inactive)	> 100 µM (inactive)	> 100 µM (inactive)	> 100 µM (inactive)	> 100 µM (inactive)	> 100 µM (inactive)	> 100 µM (inactive)
Cc1ccc(S(=O)(=O)N2CCN(CCO)CCN(S(=O)(=O)c3ccc(C)cc3)CCN(CCO)CC2)cc1	18.7 µM (inactive)	19.7 µM (inactive)	37.8 µM (inactive)		28 µM (inactive)	13.6 µM (inactive)	37.8 µM (inactive)	16.5 µM (inactive)	18.7 µM (inactive)	22.9 µM (inactive)	17.1 µM (inactive)	30.1 µM (inactive)	13.6 µM (inactive)	17.5 µM (inactive)	10.3 µM (inactive)		20.6 µM (inactive)	15.4 µM (inactive)	18.2 µM (inactive)	27.5 µM (inactive)
Cn1c(=O)oc2cc(C(=O)CN3CCN(Cc4ccc5c(c4)OCO5)CC3)c(Cl)cc21		> 100 µM (inactive)	> 100 µM (inactive)	> 100 µM (inactive)		> 100 µM (inactive)	> 100 µM (inactive)	> 100 µM (inactive)		> 100 µM (inactive)		> 100 µM (inactive)	80.4 µM (inactive)	> 100 µM (inactive)		> 100 µM (inactive)		> 100 µM (inactive)	> 100 µM (inactive)	> 100 µM (inactive)
Cc1cccc(/C=N/NC(=S)Nc2ccccc2)n1	1.97 µM (inactive)	3.27 µM (inactive)	5.19 µM (inactive)	5.04 µM (inactive)	2.43 µM (inactive)	3.08 µM (inactive)	11.9 µM (inactive)	3.2 µM (inactive)	1.48 µM (inactive)		2.49 µM (inactive)	20.1 µM (inactive)	2.67 µM (inactive)	2.84 µM (inactive)	1.82 µM (inactive)	3.48 µM (inactive)	4.72 µM (inactive)	5.64 µM (inactive)	6.18 µM (inactive)	2.93 µM (inactive)
CC1(C)OC(=O)N(c2ccccc2)C12C=Cc1cccc([N+](=O)[O-])c1O2 (stereo not drawn)	> 100 µM (inactive)	15.1 µM (inactive)	> 100 µM (inactive)		92.7 µM (inactive)	72.8 µM (inactive)	> 100 µM (inactive)	> 100 µM (inactive)	36.5 µM (inactive)	37.3 µM (inactive)	51.6 µM (inactive)	73.6 µM (inactive)	97.3 µM (inactive)	43.4 µM (inactive)	47.6 µM (inactive)	53.3 µM (inactive)	58.6 µM (inactive)	> 100 µM (inactive)	55.3 µM (inactive)	> 100 µM (inactive)
COc1ccc(C2=Cc3nc2c(-c2ccccc2)c2ccc([nH]2)c(-c2ccccc2)c2nc(c(-c4ccccc4)c4ccc([nH]4)c3-c3ccccc3)C=C2)cc1	> 100 µM (inactive)	> 100 µM (inactive)	> 100 µM (inactive)	> 100 µM (inactive)	> 100 µM (inactive)	> 100 µM (inactive)	48.2 µM (inactive)	> 100 µM (inactive)		> 100 µM (inactive)	> 100 µM (inactive)	> 100 µM (inactive)	> 100 µM (inactive)	> 100 µM (inactive)			> 100 µM (inactive)	> 100 µM (inactive)	> 100 µM (inactive)	> 100 µM (inactive)
COC(=O)c1cc(C)ccc1C1CN=NC12Cc1ccc(C)cc1C2=O (stereo not drawn)	36.3 µM (inactive)	23.1 µM (inactive)	83.4 µM (inactive)	25.1 µM (inactive)	56.4 µM (inactive)	15.5 µM (inactive)	55.2 µM (inactive)	57.9 µM (inactive)	32.6 µM (inactive)	32.7 µM (inactive)	38.3 µM (inactive)	45.6 µM (inactive)	31.2 µM (inactive)	31.8 µM (inactive)	34.3 µM (inactive)		29 µM (inactive)	31.4 µM (inactive)	34 µM (inactive)	> 100 µM (inactive)
COC(=O)[C@@H]1C[C@@H](O)CN1C(=O)c1ccc([N+](=O)[O-])cc1[N+](=O)[O-]	39.2 µM (inactive)	> 100 µM (inactive)	> 100 µM (inactive)		> 100 µM (inactive)	96.6 µM (inactive)	> 100 µM (inactive)	> 100 µM (inactive)	> 100 µM (inactive)	> 100 µM (inactive)	> 100 µM (inactive)	> 100 µM (inactive)	> 100 µM (inactive)	> 100 µM (inactive)	> 100 µM (inactive)	> 100 µM (inactive)	> 100 µM (inactive)	> 100 µM (inactive)	> 100 µM (inactive)	> 100 µM (inactive)
CN(C)CCOC1(Cc2ccc(F)cc2)CCC(C(C)(C)C)CC1 (stereo not drawn)	8.67 µM (inactive) and 13.4 µM (inactive)	3.13 µM (inactive) and 2.61 µM (inactive)	6.47 µM (inactive) and 7.69 µM (inactive)	4.38 µM (inactive) and 2.84 µM (inactive)	11.2 µM (inactive) and 12.8 µM (inactive)	1.93 µM (inactive) and 1.74 µM (inactive)	7.31 µM (inactive) and 11.9 µM (inactive)		6.08 µM (inactive) and 10.7 µM (inactive)	3.19 µM (inactive) and 2.64 µM (inactive)	1.67 µM (inactive) and 2.05 µM (inactive)	11.7 µM (inactive) and 14 µM (inactive)	2.42 µM (inactive) and 3.2 µM (inactive)	4.34 µM (inactive) and 5.09 µM (inactive)	5.58 µM (inactive) and 4.09 µM (inactive)	2.3 µM (inactive) and 2.48 µM (inactive)	5.62 µM (inactive) and 5.02 µM (inactive)	2.96 µM (inactive) and 3.14 µM (inactive)	13.3 µM (inactive) and 12 µM (inactive)	7 µM (inactive) and 6.82 µM (inactive)
O=C1c2ccccc2-n2c1nc1ccc([N+](=O)[O-])cc1c2=O	21.1 µM (inactive)	26.3 µM (inactive)	20.2 µM (inactive)	51.5 µM (inactive)	21.3 µM (inactive)	95.9 µM (inactive)	> 100 µM (inactive)		82.6 µM (inactive)	34.8 µM (inactive)	91.8 µM (inactive)	> 100 µM (inactive)	22.5 µM (inactive)	25.9 µM (inactive)	89.7 µM (inactive)	25.2 µM (inactive)	68.9 µM (inactive)	> 100 µM (inactive)	48.2 µM (inactive)	30.6 µM (inactive)
COC(=O)[C@@H]1COC(C(C)(C)C)N1C(=O)C(c1ccccc1)c1ccccc1 (stereo partly drawn)	39.2 µM (inactive)	38.7 µM (inactive)	> 100 µM (inactive)	> 100 µM (inactive)	44.1 µM (inactive)	36.8 µM (inactive)	40.9 µM (inactive)	90.2 µM (inactive)	59 µM (inactive)	26.7 µM (inactive)	52 µM (inactive)	55.5 µM (inactive)	22.6 µM (inactive)	62.8 µM (inactive)	33.6 µM (inactive)		43.6 µM (inactive)	48.3 µM (inactive)	81.7 µM (inactive)	> 100 µM (inactive)
CC1(C)[C@@H](Cn2cnc3c(Cl)nc(N)nc32)CC[C@@]1(C)CO	33 µM (inactive)		28.2 µM (inactive)			18.7 µM (inactive)	83.4 µM (inactive)	18.5 µM (inactive)		31.6 µM (inactive)	40.3 µM (inactive)	19.7 µM (inactive)	27.9 µM (inactive)	> 100 µM (inactive)	30.4 µM (inactive)	24.2 µM (inactive)	> 100 µM (inactive)	22.5 µM (inactive)		> 100 µM (inactive)
